Patent publication US11352396B2, “Antimicrobial peptides and methods of using same” (Zoetis Services LLC, priority 2017, dated 2022)

Tests used:
[1] = test system: MSSP (Methicillin-Susceptible Staphylococcus pseudintermedius); assay: MIC against selected strains of MSSP; format: cell-based; parameters: key to MIC MSSP 84658 / MIC MSSP 86000 / MIC MSSP 71990 / MIC MSSP 72036 / MIC MSSP 78032: MIC in μM; key to MIC MSSP 86001 / MIC MSSP 72191 / MIC MSSP 76986 / MIC MSSP 77378: MIC in μM (first well with no visible growth); MIC MSSP 49051 / MIC MSSP 81923 / MIC MSSP 84250 / Effect on MSSP 86000 / Effect on MSSP 72036 / Effect on MSSP 78032: unit not given beside the values; settings: for MIC MSSP 49051: strain 49051, Table 3; for MIC MSSP 71990: strain 71990, Table 3; for MIC MSSP 72036: strain 72036, Table 3; for MIC MSSP 72191: strain 72191, Table 3; for MIC MSSP 76986: strain 76986, Table 3; for MIC MSSP 77378: strain 77378, Table 3; for MIC MSSP 78032: strain 78032, Table 3; for MIC MSSP 81923: strain 81923, Table 3; for MIC MSSP 84250: strain 84250, Table 3; for MIC MSSP 84658: strain 84658, Table 3; for MIC MSSP 86000: strain 86000, Table 3; for MIC MSSP 86001: strain 86001, Table 3
Experimental: (§1) Peptides according to SEQ ID NOs as listed in Table 1 were prepared by a commercial manufacturer (CS Bio, Menlo Park, Calif.) using solid phase synthesis. Antimicrobial activity was assessed by determining the Minimal Inhibitory Concentration (MIC) against S. aureus and E. coli. Briefly, Microbroth MICs were performed using CLSI methodology (VET01-S2). For S. aureus and E. coli ATCC strains, TSA with 5% lysed horse blood agar was used for overnight culturing at 37° C. ambient air. A 0.5 mM stock for each peptide was made with cell culture water, 0.01% acetic acid and serially diluted and spotted (10 μL) in a 96-well plate for in assay dose titration concentration of 50 μM to 0.05 μM. 0.5 McFarland Standard of each strain was diluted 1:250 in Mueller-Hinton Broth (MHB). 90 μL of culture suspension was then added upon drug in the 96-well plate for overnight incubation for 18-20 hours. The MIC was determined visually at the first well of no visible growth at the corresponding concentration.
(§2) Antimicrobial activity of the peptides listed in Table 2 against different strains of MSSP (Methicillin-Susceptible Staphylococcus pseudintermedius) and MRSP (Methicillin-Resistant Staphylococcus pseudintermedius) was further assessed. The results are in Tables 3 and 4, respectively.

[2] = test system: MRSP (Methicillin-Resistant Staphylococcus pseudintermedius); assay: MIC against selected strains of MRSP; format: cell-based; parameters: key to MIC MRSP 88493 / MIC MRSP 72035 / MIC MRSP 81926: MIC in μM; key to MIC MRSP 71994 / MIC MRSP 79882 / MIC MRSP 80729 / MIC MRSP 86002: MIC in μM (first well with no visible growth); key to MIC MRSP 72192 / MIC MRSP 76923 / MR 71994 / Mr 88493 / MR 72035 / MR 72192 / MR 76923 / MR 79882 / MR 80279 / MR 81926 / MR 86002 / MR 87665: MIC in μM (visual, first well with no growth); MIC MRSP 87655: unit not given beside the values; settings: for MIC MRSP 71994: strain 71994, Table 4; for MIC MRSP 72035: strain 72035, Table 4; for MIC MRSP 72192: strain 72192, Table 4; for MIC MRSP 76923: strain 76923, Table 4; for MIC MRSP 79882: strain 79882, Table 4; for MIC MRSP 80729: strain 80729, Table 4; for MIC MRSP 81926: strain 81926, Table 4; for MIC MRSP 86002: strain 86002, Table 4; for MIC MRSP 87655: strain 87655, Table 4; for MIC MRSP 88493: strain 88493, Table 4
Experimental: as §1, §2

[3] = test system: Canine-derived epithelial keratinocyte (CPEK) cells; format: cell-based
Experimental: Safety of the peptides listed in table 2 was determining by measuring cell viability. Canine-derived epithelial keratinocyte (CPEK) cells were propagated to determine cell viability in the presence of peptides. Cells were grown from a frozen stock in CnT-09-5 (with supplements) pre-warmed media in a T75 flask and incubated overnight at 37° C., 5% CO2. Cells were washed with phosphate buffer and replenished with pre-warmed CnT-05-9 media and repeated for several days until cells reached a density of 6.6×10^4 cells/mL. Cells were then transferred to a 384 well plate, allowed to settle and dosed with peptides and melittin control peptide (50 μM to 0.05 μM) and incubated overnight at 37° C., 5% CO2. 0.1% TritonX100 as (HPE) and phosphate buffer alone as (ZPE) were added to the plates to calculate percent effect once the assay was terminated with 10 μL CELLTITER-GLO® assay reagents for a luminescent readout.

[4] = test system: cRBC; format: cell-based, canine
Experimental: SEQ ID NO: 1 was selected for further research. Toxicity of SEQ ID NO: 1 to eukaryotic blood cells was compared to that of tachyplesin (SEQ ID NO: 13). A standard, well referenced red blood cell hemolysis assay was employed against multiple species to test the lysis potential of the peptides. Red blood cells (RBCs) were prepared and isolated by several centrifuge and wash steps to remove the plasma fraction. A dose titration (50 μM to 0.05 μM) of test peptides and control peptide melittin were spotted from 50 mM stocks in a 384 well plate. Prepared RBCs were incubated with peptide for one hour at 37° C. Percent hemolysis was measured by optical density at 405 nm and utilizing 1% TritonX100 as hundred percent effect (HPE) and phosphate buffer alone as zero percent effect (ZPE).

7 (KWCFRVCYRGVCYRRCRD; Artificial Antimicrobial peptide) [compound 7]
0.8: MIC MSSP 77378 [1]
1.6: MIC MSSP 49051 [1] | MIC MSSP 71990 [1] | MIC MSSP 72036 [1] | MIC MSSP 72191 [1] | MIC MSSP 76986 [1] | MIC MSSP 78032 [1] | MIC MSSP 81923 [1] | MIC MSSP 84250 [1] | MIC MSSP 84658 [1] | MIC MSSP 86000 [1] | MIC MSSP 86001 [1] | MIC MRSP 71994 [2] | MIC MRSP 72035 [2] | MIC MRSP 72192 [2] | MIC MRSP 76923 [2] | MIC MRSP 79882 [2] | MIC MRSP 80729 [2] | MIC MRSP 81926 [2] | MIC MRSP 86002 [2] | MIC MRSP 87655 [2] | MIC MRSP 88493 [2]
84.1: cRBC (50 μM) [4]
11.3: CPEK (50 μM) [3]

96 (KWCFRVCYGRICYRRCRD; Artificial Antimicrobial peptide) [compound 96]
51.9: CPEK (50 μM) [3]
101.4: cRBC (50 μM) [4]
0.8: MIC MSSP 77378 [1]
1.6: MIC MSSP 49051 [1] | MIC MSSP 71990 [1] | MIC MSSP 72036 [1] | MIC MSSP 72191 [1] | MIC MSSP 76986 [1] | MIC MSSP 78032 [1] | MIC MSSP 81923 [1] | MIC MSSP 84250 [1] | MIC MSSP 84658 [1] | MIC MSSP 86000 [1] | MIC MSSP 86001 [1] | MIC MRSP 71994 [2] | MIC MRSP 72035 [2] | MIC MRSP 72192 [2] | MIC MRSP 76923 [2] | MIC MRSP 79882 [2] | MIC MRSP 80729 [2] | MIC MRSP 81926 [2] | MIC MRSP 86002 [2] | MIC MRSP 87655 [2] | MIC MRSP 88493 [2]

10 (KWCFRVCYRGICYHRCRD; Artificial Antimicrobial peptide) [compound 10]
0.8: MIC MSSP 77378 [1] | MIC MRSP 79882 [2]
31.5: CPEK (50 μM) [3]
1.6: MIC MSSP 49051 [1] | MIC MSSP 71990 [1] | MIC MSSP 72036 [1] | MIC MSSP 72191 [1] | MIC MSSP 76986 [1] | MIC MSSP 78032 [1] | MIC MSSP 81923 [1] | MIC MSSP 84250 [1] | MIC MSSP 84658 [1] | MIC MSSP 86000 [1] | MIC MSSP 86001 [1] | MIC MRSP 71994 [2] | MIC MRSP 72035 [2] | MIC MRSP 72192 [2] | MIC MRSP 76923 [2] | MIC MRSP 80729 [2] | MIC MRSP 81926 [2] | MIC MRSP 86002 [2] | MIC MRSP 87655 [2] | MIC MRSP 88493 [2]
101.1: cRBC (50 μM) [4]
